The values that follow come from patent US5225607A, “Insecticidal ethers” (Imperial Chemical Industries PLC, priority 1985, dated 1993).

Assay type in all cases: in vivo
The subject of one assay is Blattella germanica. Kind of assay: Insecticidal test, Blattella germanica (cockroach nymphs), residual. To be noted: 72 h, plastic pot, 3 days, read-out: grading of mortality, BG. In outline: (§1)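 Acetone solution diluted in water + 0.01% wetting agent; 500/250/100 ppm. Treat pests and/or host plant/food medium. Read mortality/knockdown day 1–3. Grades: A 80–100% (S. exigua 70–100%), B 50–79% (50–69%), C <50%.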

The next assay concerns Diabrotica balteata. Kind of assay: Insecticidal test, Diabrotica balteata (rootworm larvae), residual. The note with it: 72 h, filter paper/maize seed, 3 days, read-out: grading of mortality, DB. In outline:
as §1

The next assay has as its system Tetranychus urticae. In words: Insecticidal/acaricidal test, Tetranychus urticae (spider mites - adult), contact. To be noted: 72 h, French bean leaf, 3 days, read-out: grading of mortality, TU. Here is the method:
The activity of the Product was determined using a variety of insect and acarine pests. The Product was used in the form of liquid preparations containing 500, 250 or 100 parts per million (ppm) by weight of the Product. The preparations were made by dissolving the Product in acetone and diluting the solutions with water containing 0.01% by weight of a wetting agent sold under the trade name "LISSAPOL" NX until the liquid preparations contained the required concentratio of the Product. "Lissapol" is a Registered Trade Mark.
The test procedure adopted with regard to each pest was basically the same and comprised supporting a number of the pests on a medium which was usually a host plant or a foodstuff on which the pests feed, and treating either or both the pests and the medium with the preparations. The mortality of the pests was then assessed at periods usually varying from one to three days after the treatment.
The results of the tests are given in Table IV for each of the Products, at the rate in parts per million given in the second column as a grading of mortality designated as A, B or C wherein A indicates 80-100% mortality or knockdown (70-100% in the case of Spodoptera exigua), B indicates 50-79% mortality or knockdown (50-69% in the case of Spodoptera exigua) and C indicates less than 50% mortality or knockdown.
In Table IV the pest organism used is designated by a letter code and the pest species, the support medium or food, and the type and duration of test is given in Table III.

The subject of assay [1] is Musca domestica. In words: Knockdown test, Musca domestica (houseflies - adults). The note with it: cotton wool/sugar, 4 hours, read-out: grading of knockdown, MD/KD. In outline: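 Knockdown scores were banded: A 80–100%, B 50–79%, C <50%. Test preparations of 500, 250 or 100 ppm compound were made in acetone, then diluted with water containing 0.01% Lissapol NX, and applied to Musca domestica adults.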

A further assay relates to Heliothis virescens. Kind of assay: whole plant or invertebrate. The note with it: in Gossypium hirsutum, 72 h, read-out: grading of mortality, HV. An outline of the steps:
as §1

In assay [2] the test system is Musca domestica. Kind of assay: Insecticidal test, Musca domestica (houseflies - adults), contact. To be noted: 24 h, cotton wool/sugar, 1 day, read-out: grading of mortality, MD. An outline of the steps: as §1
For a further assay, the system named is Nilaparvata lugens. Kind of assay: Insecticidal test, Nilaparvata lugens (brown planthopper), contact. To be noted: 72 h, Cabbage leaf, 3 days, read-out: grading of mortality, NL. An outline of the steps: as §1
The test system of another assay is Myzus persicae. In words: Insecticidal test, Myzus persicae (aphids), contact. The note with it: 72 h, Chinese Cabbage leaf, 3 days, read-out: grading of mortality, MP. An outline of the steps:
as §1

For the molecule `CCOc1ccc(C(O)(COCc2ccc(F)c(Oc3ccc(Cl)cc3)c2)C(F)(F)F)cc1` (stereo not drawn) [Compound 117, 1,1,1-Trifluoro-2-(4-ethoxyphenyl)-3-(3-(4-chlorophenoxy)-4-fluorobenzyloxy)propan-2-ol], the mortality at 500 ppm with Blattella germanica was less than 50%; with Diabrotica balteata it was less than 50%; in the assay with Tetranychus urticae, less than 50%; in the assay on Heliothis virescens it was less than 50%; with Musca domestica [2], 50 to 79%; in the assay on Nilaparvata lugens it was less than 50%. Moreover, the mortality at 500 ppm in the assay with Myzus persicae is less than 50%. For the same molecule, the pest or weed control at 500 ppm with Musca domestica [1] is 80 to 100%.

Take `CCOc1ccc(C(F)(COCc2cccc(-c3ccccc3)c2C)C(F)(F)F)cc1` (stereo not drawn) [Compound 80, 1,1,1,2-Tetrafluoro-2-(4-ethoxyphenyl)-3-(2-methyl-3-phenylbenzyloxy)propane]: the mortality at 500 ppm in the assay on Blattella germanica is 80 to 100%; in the assay with Diabrotica balteata, 80 to 100%; in the assay with Tetranychus urticae, less than 50%; in the assay with Heliothis virescens, less than 50%; in the assay on Musca domestica [2], 80 to 100%; with Nilaparvata lugens, 80 to 100%. In addition, the mortality at 500 ppm in the assay with Myzus persicae fell in the range of 80 to 100%. Moreover, the pest or weed control at 500 ppm in the assay on Musca domestica [1] fell in the range of 80 to 100%.

Consider `CCOc1ccc(C(COCc2cccc(Oc3ccc(Br)cc3)c2)C(F)(F)F)cc1` (stereo not drawn) [Compound 9, 1,1,1-Trifluoro-2-(4-ethoxyphenyl)-3-(3-(4-bromophenoxy)benzyloxy)propane], for which the mortality at 250 ppm in the assay on Blattella germanica is 80 to 100%; with Diabrotica balteata it was 80 to 100%; in the assay on Tetranychus urticae, 50 to 79%; in the assay with Heliothis virescens it was 80 to 100%; in the assay on Musca domestica [2], 80 to 100%; in the assay with Nilaparvata lugens, less than 50%. The mortality at 250 ppm in the assay with Myzus persicae is less than 50%. Besides, in the assay on Musca domestica [1], the pest or weed control at 250 ppm fell in the range of 80 to 100%.

For the molecule `CCCc1ccc(C(Cl)(COCc2ccc(F)c(Oc3ccccc3)c2)C(F)(F)F)cc1` (stereo not drawn) [Compound 53, 1,1,1-Trifluoro-2-chloro-2-(4-n-propylphenyl)-3-(3-phenoxy-4-fluorobenzyloxy)propane], the mortality at 500 ppm in the assay on Blattella germanica, in the assay with Diabrotica balteata, in the assay on Tetranychus urticae, with Heliothis virescens, with Musca domestica [2] and in the assay on Nilaparvata lugens was 80 to 100% throughout. In addition, the mortality at 500 ppm in the assay on Myzus persicae fell in the range of 80 to 100%. The pest or weed control at 500 ppm in the assay with Musca domestica [1] was 80 to 100%.

Turning to `CCOc1ccc(C(COCc2cccc(Oc3ccc(Cl)cc3)c2)C(F)(F)F)cc1` (stereo not drawn) [Compound 3, 1,1,1-Trifluoro-2-(4-ethoxyphenyl)-3-(3-(4-chlorophenoxy)benzyloxy)propane], the mortality at 250 ppm in the assay on Blattella germanica was 80 to 100%; in the assay on Diabrotica balteata, 80 to 100%; in the assay on Tetranychus urticae, less than 50%; in the assay on Heliothis virescens, less than 50%; in the assay on Musca domestica [2], 80 to 100%; with Nilaparvata lugens it was 80 to 100%. Further, the mortality at 250 ppm with Myzus persicae lay in the range of 80 to 100%. Further, in the assay with Musca domestica [1], the pest or weed control at 250 ppm is 80 to 100%.

As for `CCOc1ccc(C(Cl)(COCc2coc(Cc3ccccc3)c2)C(F)(F)F)cc1` (stereo not drawn) [Compound 45, 1,1,1-Trifluoro-2-chloro-2-(4-ethoxyphenyl)-3-(5-benzyl-3-furanylmethyloxy)propane], the mortality at 250 ppm was less than 50% with Blattella germanica; less than 50% in the assay with Diabrotica balteata; 50 to 79% in the assay on Tetranychus urticae; less than 50% in the assay on Heliothis virescens; less than 50% in the assay with Musca domestica [2]; less than 50% with Nilaparvata lugens. The mortality at 250 ppm in the assay with Myzus persicae is less than 50%. Further, the pest or weed control at 250 ppm in the assay on Musca domestica [1] was in the range of 80 to 100%.

A word on the mortality: it is the share of the test organisms that died.
